“And” between values parts separate entries of the source, which are not always exact repeats. Identical values can stand only once. “Also recorded” adds a separate entry of the source. Like-named read-outs stand apart in the source and are kept apart here.
How the values were obtained:
HL-60 cell line = assay: IC50 of PAC-1 derivatives in HL-60 cell line (Table 5); assay type: cell-based
Description: The results are indicated in Table 5 (where L- and R-designations refer to structures shown in the AX and BX series above, respectively).

HL-60 cells [1] = assay: Apoptosis induction assay in HL-60 cells, 72 hrs (Table 6); assay type: cell-based; settings: Homo sapiens
Procedure: Compounds DX1-DX17 were tested using the HL-60 cell line for the ability to effect apoptosis, and IC50 values were determined. Activity levels of compounds from assays of 72 hrs duration with HL-60 cells are shown in Table 6 and along with structures in FIG. 12.

procaspase-3 = procaspase-3 (Homo sapiens (Human), UniProt P42574); assay: PAC-1 activation gel (Western blot of procaspase-3 cleavage); assay type: biochemical
Procedure: Procaspase-3 was expressed and isolated exactly as above. Procaspase-3 was diluted to about 50 μg/mL in caspase assay buffer. […] After this incubation, an equal volume of load buffer (150 mM NaCl, 50 mM Tris, 2% SDS, 20% glycerol, pH 8.0) was added to each procaspase-3 sample. All samples were then stored at −80° C. until the time-course was completed. All samples were then incubated at 95° C. for 5 minutes and run on a 12% SDS-PAGE gel. Proteins were then transferred to nitrocellulose paper overnight. Blots were washed in TTBS (150 mM NaCl, 50 mM Tris, 0.1% Tween-20, pH 7.4) and blocked with a 10% milk solution for 2 hours. Blots were then incubated in a 1:5000 dilution of anti-Penta His Alexa Fluor 647 antibody for 2 hours. The blot was then washed with TTBS and scanned on a Typhoon fluorescence scanner (Amersham Biosciences, Sunnyvale Calif.).

[2] = test system: NCI-H226 (lung cancer) xenograft tumors; assay: NCI-H226 subcutaneous xenograft, oral gavage; assay type: in vivo, mice; settings: oral gavage once a day for 21 days, 50 or 100 mg/kg
[3] = test system: white blood cells derived from the bone marrow of a healthy human donor; assay: Cell death in normal white blood cells; assay type: cell-based; settings: relative to cancer cell lines
[4] = test system: NCI-H226 lung cancer cell line; assay: Cell death IC50 (MTS) in NCI-H226; assay type: cell-based; settings: Homo sapiens, NCI-H226, 72 h, read-out: IC50 for cell death induction, NCI-H226
[5] = test system: mitochondrial membrane depolarization in HL-60 cells; assay: Mitochondrial membrane potential (JC-9) in HL-60; assay type: cell-based, human
Procedure: The cells were incubated for various times, and the cells then were harvested by centrifugation. The cells were washed in PBS and resuspended in 1 mL of PBS. 10 μg of the JC-9 dye was added and the cells were incubated at room temperature for 10 minutes protected from light. The cells were then washed two times with PBS and brought up in 500 μL PBS. The fluorescent intensity of each cell was determined by flow cytometry at 525 nm (green channel) and 675 nm (red channel). 50,000 cells were analyzed in each experiment. The shift in the red channel was then used to determine the amount of mitochondrial membrane depolarization.

[6] = test system: primary colon cancer cells; assay: Cell death in primary cancerous cells from resected colon tumors; assay type: cell-based, human
HL-60 cells [7] = assay: Annexin V staining (phosphatidylserine exposure); assay type: cell-based, human
Procedure: Cells were harvested by centrifugation and washed twice in PBS. The cells were then washed in AnnexinV binding buffer (10 mM HEPES, 140 mM NaCl, 2.5 mM CaCl2, pH 7.4) and resuspended in 100 μL of Annexin V binding buffer. 5 μL of annexin V, Alexa Fluor 488 conjugate was added and the tubes were incubated at room temperature for 15 minutes protected from light. 400 μL of Annexin V binding buffer was then added, followed by the addition of 1 μL of a 1 mg/mL solution of propidium iodide. The fluorescent intensity of each cell was determined by flow cytometry at 525 nm (green channel) and 675 nm (red channel). At least 50,000 cells were analyzed in each experiment.

[8] = test system: NCI-H226 (lung cancer) cells injected i.v.; assay: NCI-H226 i.v. injection lung model, oral gavage; assay type: in vivo, mice; settings: 100 mg/kg oral gavage days 1-4 and 7-11, 28 days
HL-60 cells [9] = assay: Cell death inhibition by z-vad-fmk; assay type: cell-based, human
Procedure: Cell death inhibition by z-vad-fmk. 100 μL HL-60 cells at a concentration of 5×10^5 cells/mL were added to the wells of a 96-well plate. The cells were then incubated for 1 hour in the presence or absence of 100 μM z-vad-fmk, a cell-permeable pan caspase inhibitor. […] The plates were incubated at 37° C. for approximately 45 minutes until the colored product formed.

[10] = test system: white blood cells from bone marrow, Hs888Lu, MCF-10A, Hs578Bst; assay: Cell death in four non-cancerous cell types; assay type: cell-based
HL-60 cells [11] = assay: Cell death induction IC50 (MTS) in HL-60; assay type: cell-based, human
[12] = test system: ACHN (renal cancer) subcutaneous tumors; assay: ACHN xenograft, PAC-1/cholesterol pellet; assay type: in vivo, mice
[13] = test system: cells from adjacent non-cancerous tissue; assay: Cell death in cells from adjacent non-cancerous colon tissue; assay type: cell-based, human
Description: To test this direct, small molecule-mediated procaspase-3 activation strategy in clinical isolates of cancer, we obtained freshly resected colon tumors (together with adjacent non-cancerous tissue) from 18 patients from Carle Foundation Hospital (Urbana, Ill.).

[14] = test system: MCF-7, breast cancer cells; assay: Cell death IC50 in MCF-7; settings: Homo sapiens, MCF7, read-out: IC50 for death induction, MCF-7
Procedure: Determination of IC50 values in various cell lines. 50 μL of media containing various concentrations of PAC-1 or etoposide was added to each well of a 96-well plate except control wells, which contained only DMSO. […] The plates were then incubated at 37° C. for approximately one hour until the colored product formed.

Sequence of procaspase-3 (P42574 whole entry): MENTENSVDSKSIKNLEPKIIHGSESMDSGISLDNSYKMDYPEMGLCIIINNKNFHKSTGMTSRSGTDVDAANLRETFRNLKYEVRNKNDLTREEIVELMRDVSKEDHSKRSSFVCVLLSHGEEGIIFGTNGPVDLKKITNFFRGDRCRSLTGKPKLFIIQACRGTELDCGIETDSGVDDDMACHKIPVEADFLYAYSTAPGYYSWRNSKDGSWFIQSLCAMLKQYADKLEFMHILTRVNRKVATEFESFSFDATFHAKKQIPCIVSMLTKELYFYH

## C=CCc1cccc(/C=N/NC(=O)CN2CCN(Cc3ccccc3)CC2)c1O [PAC-1]
HL-60 cell line; HL-60 IC50 relative to PAC-1
  Fold better than PAC-1: 1.0 fold
HL-60 cell line; Homo sapiens, HL-60, Table 5
  IC50: 54.6 µM
HL-60 cells [1]
  IC50: 2.8 µM
procaspase-3; 5 μM
  effectiveness in procaspase-3 cleavage assay: effective
procaspase-3; 100 μM PAC-1
  time to cleavage generating the p19 fragment: ≤ 1 h
procaspase-3; 100 μM PAC-1, after 4 hours
  cleavage (processing) of procaspase-3: > 50%
[2]
  tumor growth, NCI-H226 xenograft: significantly retards tumor growth in a dose-dependent manner
[3]
  potency/toxicity in normal white blood cells: comparatively less toxic; also recorded: markedly less potent
[4]
  IC50: 0.35 µM
[5]
  mitochondrial membrane depolarization: causes mitochondrial membrane depolarization
[6]; FIG. 6B, Patient 3
  sensitivity of cells in cancerous tissue in comparison with normal tissue: greater than 80 fold
[6]; Homo sapiens, read-out: IC50 in cancer cells from patient 17, patient 17
  IC50: 0.007 µM
[6]; patient 17
  sensitivity of cancer cells versus cells from adjacent normal tissue: over 700 fold
HL-60 cells [7]; 5 μM
  effectiveness in Annexin-V assay: effective
HL-60 cells [7]; HL-60, 20 h, 100 μM
  phosphatidylserine exposure on the cell membrane: considerable phosphatidylserine exposure
[8]
  lung tumor mass, NCI-H226 i.v. injection model: clear difference; also recorded: almost no visible gray matter
HL-60 cells [9]
  toxicity in the presence of caspase inhibitor z-VAD-fmk: abolished
[10]
  IC50: 3.2 to 8.5 µM
HL-60 cells [11]
  cell death induction in cancer cells in culture (in words): induce death in cancer cells
HL-60 cells [11]; Homo sapiens, HL-60, Table 3, read-out: IC50 (μM) for death induction in HL-60 cells
  IC50: 0.92 µM
[12]; last week of the experiment, 0, 1, 5 mg pellets
  food consumption: no difference in food consumption
[12]; pellet containing 5 mg of PAC-1, about 8 weeks
  tumor growth, ACHN xenograft: significantly retarded; also recorded: reduces the growth of tumors
[13]; Homo sapiens, read-out: PAC-1, IC50, Normal (adjacent non-cancerous tissue), per patient, 18 patients
  IC50: 5.02 to 9.98 µM
[13]; read-out: PAC-1, IC50, Normal (adjacent non-cancerous tissue), per patient, 18 patients
  IC50: 6.88 µM and 6.28 µM and 7.34 µM and 5.67 µM and 6.54 µM and 9.98 µM and 5.94 µM and 5.63 µM and 5.5 µM and 7.58 µM and 5.96 µM and 5.02 µM and 5.17 µM and 6.39 µM and 6.78 µM and 9.79 µM and 6.61 µM and 9.5 µM
[14]
  IC50: > 75 µM

From patent US10166229B2, “Compounds and methods for the treatment of cancer” (The Board of Trustees of the University of Illinois, priority 2005, dated 2019)
